Values quoted from earlier work in patent US8778869B2, “Tissue regeneration system” (Wisconsin Alumni Research Foundation, priority 2010, dated 2014).

Molecule: fibroblast growth factor-2 [FGF-2]
- concentration of optimal in vitro biological activity: approximately 1 nM

B1: bone morphogenetic protein-2 (protein, listed as Homo sapiens)
chain: MVAGTRCLLALLLPQVLLGGAAGLVPELGRRKFAAASSGRPSSQPSDEVLSEFELRLLSMFGLKQRPTPSRDAVVPPYMLDLYRRHSGQPGSPAPDHRLERAASRANTVRSFHHEESLEELPETSGKTTRRFFFNLSSIPTEEFITSAELQVFREQMQDALGNNSSFHHRINIYEIIKPATANSKFPVTRLLDTRLVNQNASRWESFDVTPAVMRWTAQGHANHGFVVEVAHLEEKQGVSKRHVRISRSLHQDEHSWSQIRPLLVTFGHDGKGHPLHKREKRQAKHKQRKRLKSSCKRHPLYVDFSDVGWNDWIVAPPGYHAFYCHGECPFPLADHLNSTNHAIVQTLVNSVNSKIPKACCVPTELSAISMLYLDENEKVVLKNYQDMVVEGCGCR
- concentration of optimal in vitro biological activity: approximately 1 nM
